We go through one compound from US20010006673A1, “LUTEIN- CONTAINING SUPPLEMENT AND PROCESS FOR ENHANCING IMMUNE RESPONSE IN ANIMALS” (priority 1998, published 2001).

Assay [1] has as its system peripheral blood mononuclear cells (PBMC). Put plainly: Mitogen-induced lymphocyte proliferation by PBMC, whole blood culture, dogs. The class given is in vivo, Beagle dogs. The protocol:
Blood collected on weeks 0, 2, 4, 8 and 12 were used to assess mitogen-induced lymphocyte proliferation by peripheral blood mononuclear cells (PBMC). Whole blood culture was used in order to mimic in vivo conditions. Mitogens used were phytohemagglutinin (PHA), concanavalin A (Con A) and pokeweed mitogen (PWM). Whole blood was thoroughly mixed and then diluted 1:12 with RPMI-1640 containing 25 mM of Hepes, penicillin (100 U/mL) and streptomycin (100 μg/mL) (Sigma, St. Louis, Mo.). […] Triplicate 150 μL volumes were pipetted into 96-well round bottom plates and 50 μl of the appropriate mitogens added. The final concentrations of the mitogens in culture were 2 and 10 μg/mL for PHA, 1 and 5 μg/mL for Con A and 0.5 and 2.5 μg/mL for PWM. The two mitogen concentrations gave maximum (the higher mitogen concentration) and suboptimal (lower mitogen concentration) proliferative responses in preliminary studies using blood from similar animals. The mixture was incubated for 72 h at 37° C. in a humidified incubator under a 5% CO2 atmosphere. Four hours prior to the termination of the incubation period, 20 μL of [^3H]-thymidine (1 [μCi/well) were added. Cells were harvested onto fiberglass filters and radioactivity was counted by liquid scintillation. Proliferation response of PBMC was expressed as stimulation index (cpm of stimulated cultures/cpm of unstimulated cultures).

The test system of a further assay is IgG and IgM. In words: Serum IgG and IgM by single radial immunodiffusion, dogs. The class given is in vivo, Beagle dogs. The protocol: Serum collected on weeks 0, 2, 4, 8 and 12 were analyzed for IgG and IgM concentrations by single radial immunodiffusion (SRID). In addition, all dogs were vaccinated with the polyvalent vaccine (Vanguard 5, Smithkline Beacham, West Chester, Pa.) on week 13 and again on week 15 to study the possible anamnestic effect of dietary lutein. Blood was collected weekly from week 13 through week 17. Goat antiserum to canine IgG (10%, whole molecule) or IgM (7.5%, μ chain specific) (ICN, Aurora, Ohio) was mixed with melted agarose (10 g/L in PBS; Sigma Chem. Co., St. Louis, Mo.) and the mixture solidified in SRID plates.
Duplicate 5 μL volumes of serum or IgG (0, 2.88, 5.75, 11.5 and 23.0 mg/ml) or IgM (0, 0.25, 0.5, 1.0 and 2.0 mg/ml) standard were loaded into the wells. After incubating for 24 hours at room temperature in a humidified chamber, ring diameters were measured using a SRID reader (Transidyne General Corp., Ann Arbor, Mich.).

Another assay deals with mouse splenocytes. As to conditions: dietary lutein; cited from earlier work.

Turning to `CC1=C[C@H](O)CC(C)(C)[C@H]1/C=C/C(C)=C/C=C/C(C)=C/C=C/C=C(C)/C=C/C=C(C)/C=C/C1=C(C)C[C@@H](O)CC1(C)C` [lutein], the “Spontaneous proliferation by unstimulated PBMC” value in assay [1] (dogs) is “did not significantly influence”. Further, in assay [1] (dogs fed 10 mg lutein, week 8), the “PWM-stimulated PBMC proliferative response” value is listed as “higher”. Further, the “Con A-stimulated PBMC proliferation” value in assay [1] (dogs fed 10 mg lutein, weeks 8 and 12, 5 μg/mL Con A) is “higher”; in assay [1] (dogs fed 20 mg lutein, weeks 8 and 12, both concentrations of Con A), “higher”. The “PHA-stimulated PBMC proliferative response vs unsupplemented” value in assay [1] (dogs fed 20 mg lutein, week 8, P<0.01) was “enhanced”; in assay [1] (dogs fed 20 mg lutein, week 12, 2 and 10 μg/mL PHA, P<0.01), “enhanced”. Moreover, the “PWM-stimulated PBMC proliferation vs unsupplemented controls” value in assay [1] (dogs fed 20 mg lutein, week 8 and 12, both concentrations of PWM) is recorded as “significantly higher”. Besides, in assay [1] (dogs fed 5 and 10 mg lutein, week 8, 10 μg/ml PHA), the “PHA-stimulated PBMC proliferation” value is reported as “higher”. Also, the “PHA-stimulated PBMC response” value in assay [1] (dogs, weeks 0 and 4) was “no significant effect”. Moreover, the “PWM-stimulated PBMC proliferation” value in assay [1] (dogs, weeks 0 and 4) is listed as “no significant treatment difference”. For the same compound, the “Plasma IgG” value is given as “higher” in the assay with IgG and IgM (dogs fed 5 mg lutein, week 16, after revaccination on week 15, P<0.05); “higher” with IgG and IgM (dogs fed 20 mg lutein, week 17, after revaccination on week 15). Also, in the assay with IgG and IgM (dogs, after revaccination), the “Concentration of plasma IgM” value is “not changed”. Moreover, the Lymphocyte proliferation entry in the assay with mouse splenocytes is given as “enhance”.
